Laboratory results as given in patent US4510323A, “Cis-bicyclo[3.3.0]octane derivatives, medicaments containing them and processes for their preparation and use” (Gruenenthal GmbH, priority 1981, dated 1985).

Key:
human thrombocytes = test: Inhibition of arachidonic acid induced aggregation of human thrombocytes; type: cell-based; settings: for IC50: arachidonic acid induced aggregation of human thrombocytes; for relative activity: in comparison to prostacyclin = 1.0
Source text: The aggregation of human thrombocytes induced by arachidonic acid may be prevented e.g. by prostacyclin.

narcotized rats [1] = test: Persistence of blood pressure lowering activity after supramaximal hypotensive dose in narcotized rats; type: in vivo, rat; settings: for half time of b.p.l.a. (blood pressure lowering activity) / rate of decay of blood pressure lowering activity: 1 mg/kg intravenous, narcotized rats (pentobarbital)
Method: On intravenous administration of a supra-
maximal hypotensive dose (1 mg/kg) of the test com-
pounds in narcotized rats (pentobarbital narcosis) the
following persistence characteristics of the blood
pressure lowering activity ("b.p.l.a.") were observed: […]

[2] = tested on: conscious, spontaneous hypertensive rats; test: Blood pressure lowering activity in conscious, spontaneous hypertensive rats; type: in vivo, rat; settings: intravenous; for ED (20 mm Hg): Rattus norvegicus, read-out: ED20 (dose causing a drop of the diastolic blood pressure by 20 mm Hg); for relative activity: blood pressure lowering, conscious SHR, 5,6-dihydroprostacyclin = 1.0
Source text: Blood pressure lowering activity in conscious,
spontaneous hypertensive rats (measurement via in-
dwelling catheter, intravenous administration of the […]

narcotized rats [3] = test: Blood pressure lowering activity in narcotized rats (pentobarbital narcosis); type: in vivo, rat; settings: intravenous; for ED (20 mm Hg): Rattus norvegicus, pentobarbital narcosis, read-out: ED20 (dose causing a drop of the diastolic blood pressure by 20 mm Hg); for relative activity: blood pressure lowering, prostacyclin = 1.0
Source text: Blood pressure lowering activity in nar-
cotized rats (pentobarbital narcosis; intravenous

narcotized rats [4] = test: Thrombocyte aggregation inhibition after oral administration (ADP induced fall in thrombocyte count in-vivo) in narcotized rats; set-up: species or system rat; settings: for % inhibition of platelet aggregation: narcotized rats (urethane)
Method: In this experiment the product obtained in Example 2 was administered orally in a dose of 4.64 mg/kg of narcotized rats (urethane narcosis). The thrombocyte aggregation inhibiting activity was determined at 30, 60 and 150 minutes after administration of the compound (Method: ADP induced fall in thrombocyte count in-vivo, determined by a "Technicon Autocounter").

[5] = molecular target: T1, adenylate cyclase in horse thrombocytes (Equus caballus, UniProt F7CK38); test: Stimulation of adenylate cyclase (c-AMP formation from ATP) in horse thrombocytes; type: biochemical
T1 construct: Gs-coupled adenylate cyclase stimulation, cAMP formation from ATP as read-out
Source text: The enzyme adenylate cyclase catalyzes the formation of adenosine 3',5'-cyclic monophosphate (c-AMP) from adenosine triphosphate (ATP).
*Dose causing a threefold stimulation of the cAMP formation from ATP.

narcotized rats [6] = test: ADP induced fall in platelet count in-vivo in narcotized rats, intravenous administration; set-up: species or system rat; settings: urethane narcosis, 5,6-dihydroprostacyclin = 1.0
narcotized rats [7] = settings: stated as known; cited from earlier work
[8] = tested on: platelet aggregation induced by arachidonic acid; settings: in vitro, Whittle et al., page 611; cited from earlier work
[9] = conscious spontaneous hypertensive rats, indwelling catheter

T1 sequence (F7CK38 1-384): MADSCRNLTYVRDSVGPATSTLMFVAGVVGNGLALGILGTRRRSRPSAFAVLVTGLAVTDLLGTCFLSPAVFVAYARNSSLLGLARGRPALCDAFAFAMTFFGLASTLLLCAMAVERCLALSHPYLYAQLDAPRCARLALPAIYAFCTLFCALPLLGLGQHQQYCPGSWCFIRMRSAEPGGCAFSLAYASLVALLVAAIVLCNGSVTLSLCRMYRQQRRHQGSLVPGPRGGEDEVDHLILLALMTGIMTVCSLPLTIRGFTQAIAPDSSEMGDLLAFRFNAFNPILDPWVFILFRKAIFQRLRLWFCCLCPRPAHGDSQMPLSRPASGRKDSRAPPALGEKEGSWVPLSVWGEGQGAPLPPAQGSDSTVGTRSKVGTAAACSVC

Structure (SMILES): O=C(O)c1cccc(/C=C2\C[C@H]3C[C@@H](O)[C@H](/C=C/[C@@H](O)C4CCCCC4)[C@H]3C2)c1 [Example 2, 3E-(m-Carboxybenzylidene)-6β-(3'S-hydroxy-3'-cyclohexyl-1'E-propenyl)-7α-hydroxy-cis-bicyclo[3.3.0]octane]
- IC50 (human thrombocytes): 70 nM
- relative activity (human thrombocytes): 0.11
- half time of b.p.l.a. (blood pressure lowering activity) (narcotized rats [1]): 25.96 min
- rate of decay of blood pressure lowering activity (narcotized rats [1]): 2.6 % per min.
- duration of action relative to prostacyclin (narcotized rats [1]; blood pressure lowering activity, from Table 5): about 5 times
- ED (20 mm Hg) [2, 9]: 0.094 mg/kg
- relative activity [2]: 0.053
- ED (20 mm Hg) (narcotized rats [3]): 5.39 mg/kg
- relative activity (narcotized rats [3]): 0.03
- % inhibition of platelet aggregation (narcotized rats [4]; 30 min after oral 4.64 mg/kg): 38%
- % inhibition of platelet aggregation (narcotized rats [4]; 60 min after oral 4.64 mg/kg): 26%
- % inhibition of platelet aggregation (narcotized rats [4]; 150 min after oral 4.64 mg/kg): 22%
- duration of strong thrombocyte aggregation inhibition (narcotized rats [4]; oral administration): at least 2.5 hours
- EC200% (dose causing a threefold stimulation of the cAMP formation from ATP) [5]: 0.13 µmol/L
- relative activity (narcotized rats [6]): 1.0

Structure (SMILES): CCCCCC(O)C=CC1C(O)CC2OC(CCCCC(=O)O)CC21 (centres unmarked) [5,6-Dihydroprostacyclin, 5,6-dihydroprostacyclin, reference compound]
- IC50 (human thrombocytes): 180 nM
- relative activity (human thrombocytes): 0.043
- relative activity [2]: 1.0
- ED20 (dose causing a drop of the diastolic blood pressure by 20 mm Hg) [2, 9]: 5 µg/kg
- EC200% (dose causing a threefold stimulation of the cAMP formation from ATP) [5]: 15.0 µmol/L
- relative activity ([5]; relative to 5,6-dihydroprostacyclin = 1.0, adenylate cyclase stimulation): 1.0
- relative activity (narcotized rats [6]): 1.0

Structure (SMILES): O=C(O)c1cccc(C=C2CC3CC(O)C(C=CC(O)C45CC6CC(CC(C6)C4)C5)C3C2)c1 (stereo not drawn) [Example 3e, 3EZ-(m-Carboxybenzylidene)-6β-[3'S-hydroxy-3'-(1"-adamantyl)-1'E-propenyl]-7α-hydroxy-cis-bicyclo[3.3.0]octane]
- ED (20 mm Hg) [2, 9]: > 1 mg/kg
- relative activity [2]: < 0.005
- EC200% (dose causing a threefold stimulation of the cAMP formation from ATP) [5]: 0.18 µmol/L

Structure (SMILES): CCCCC[C@H](O)/C=C/[C@@H]1[C@H]2C/C(=C/CCCC(=O)O)O[C@H]2C[C@H]1O [Prostacyclin, reference compound]
- IC50 (human thrombocytes): 7.8 nM
- half time of b.p.l.a. (blood pressure lowering activity) (narcotized rats [1]): 5.89 min
- rate of decay of blood pressure lowering activity (narcotized rats [1]): 11 % per min.
- ED (20 mm Hg) (narcotized rats [3]): 0.16 mg/kg
- relative activity (narcotized rats [3]): 1.0
- effectiveness on oral administration (narcotized rats [7]): ineffective

Structure (SMILES): CCCCC[C@H](O)/C=C/[C@@H]1[C@H]2CC(=Cc3cccc(C(=O)O)c3)C[C@H]2C[C@H]1O [Compound A, 3-(m-carboxybenzylidene)-6-beta-(3'S-hydroxy-1'E-octenyl)-7-alpha-hydroxy- cis-bicyclo[3.3.0]octane, reference compound]
- IC50 (human thrombocytes): 120 nM
- relative activity (human thrombocytes): 0.065
- ED (20 mm Hg) [2, 9]: 1.9 mg/kg
- relative activity [2]: 0.003
- EC200% (dose causing a threefold stimulation of the cAMP formation from ATP) [5]: 0.4 µmol/L
- relative activity (narcotized rats [6]): 0.1

Structure (SMILES): CCCCC[C@H](O)/C=C/[C@@H]1[C@H]2C/C(=C/CCCC(=O)O)C[C@H]2C[C@H]1O [carbacyclin]
- activity relative to prostacyclin as inhibitor of platelet aggregation [8]: 0.02 times

Structure (SMILES): O=C(O)c1cccc(C=C2C[C@H]3C[C@@H](O)[C@H](/C=C/[C@@H](O)C4CCCCC4)[C@H]3C2)c1 [Example 1e, 3EZ-(m-carboxybenzylidene)-6β-(3'S-hydroxy-3'-cyclohexyl-1'E-propenyl)-7α-hydroxy-cis-bicyclo[3.3.0]octane]
- IC50 (human thrombocytes): 80 nM
- relative activity (human thrombocytes): 0.098
- ED (20 mm Hg) [2, 9]: 0.073 mg/kg
- relative activity [2]: 0.068
- EC200% (dose causing a threefold stimulation of the cAMP formation from ATP) [5]: 0.15 µmol/L
- relative activity (narcotized rats [6]): 1.0
